Experiments:
[1] = target: T1, ligand binding domain of the estrogen receptor alpha chain (ERαLBD) (Homo sapiens, UniProt P03372); assay: ER agonist cell assay (ERα), Huh-7 co-transfection, luciferase; format: cell-based; details: for EC50: Huh-7 cells co-transfected with pG5luc and ERαLBD, overnight incubation, luciferase; for ERα % of Max E2 Response: percent of the maximum estradiol fold change, Huh-7, pG5luc and ERαLBD
T1 construct: expressed in transfected cells; host or cells: Huh-7 human hepatoma cells, transient transfection with FuGENE 6
T1 sequence (P03372 311-547 limits assumed): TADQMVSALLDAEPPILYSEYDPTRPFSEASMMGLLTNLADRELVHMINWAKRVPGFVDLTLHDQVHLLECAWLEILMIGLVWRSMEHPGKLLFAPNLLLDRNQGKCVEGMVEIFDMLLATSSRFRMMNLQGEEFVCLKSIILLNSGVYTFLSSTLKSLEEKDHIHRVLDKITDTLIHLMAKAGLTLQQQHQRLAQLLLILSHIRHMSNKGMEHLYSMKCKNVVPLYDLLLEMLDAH

[2] = target: ligand binding domain of the estrogen receptor beta chain (ERβLBD) that contained a point mutation at amino acid residue 418 (pm418) (Homo sapiens, UniProt Q92731); assay: ER agonist cell assay (ERβ), Huh-7 co-transfection, luciferase; format: cell-based; details: for EC50: Huh-7 cells co-transfected with pG5luc and ERβLBD(pm418), overnight incubation, luciferase; for ERβ % of Max E2 Response: percent of the maximum estradiol fold change, Huh-7, pG5luc and ERβLBD(pm418)

| Compound | EC50 [1] | ERα % of Max E2 Response [1] | EC50 [2] | ERβ % of Max E2 Response [2] | melting point |
| --- | --- | --- | --- | --- | --- |
| Cl.Oc1ccc(-c2noc(C3(CN4CCSCC4)CC3)c2-c2ccccc2)cc1 [Example 32, 4-[4-Phenyl-5-(1-thiomorpholin-4-ylmethyl-cyclopropyl)-isoxazol-3-yl]-phenol hydrochloride salt] | 22.9 nM | 38.5% | 19.5 nM | 0.999% | 249 to 250 °C |
| Oc1ccc(-c2noc(C3(COc4c(F)cccc4OC(F)(F)F)CC3)c2-c2ccccc2)cc1 [Example 5, 4-{5-[1-(2-Fluoro-6-trifluoromethoxy-phenoxymethyl)-cyclopropyl]-4-phenyl-isoxazol-3-yl}-phenol] | 45.9 nM | 19.3% | > 10000 nM | >4.51% | 132 to 133 °C |
| CCOc1ccccc1OCC1(c2onc(-c3ccc(O)cc3)c2-c2ccccc2)CC1 [Example 4, 4-{5-[1-(2-Ethoxy-phenoxymethyl)-cyclopropyl]-4-phenyl-isoxazol-3-yl}-phenol] | 141 nM | 14.7% | > 10000 nM | >0.727% | 148 to 149 °C |

Results, then the molecule that gave them:

| EC50 [1] | ERα % of Max E2 Response [1] | EC50 [2] | ERβ % of Max E2 Response [2] | melting point | Compound |
| --- | --- | --- | --- | --- | --- |
| 159 nM | 94.6% | 23.6 nM | 36.7% | 212 to 213 °C | CC(C)(O)C1(c2onc(-c3ccc(O)cc3)c2-c2ccccc2)CC1 [Example 49, 4-{5-[1-(1-Hydroxy-1-methyl-ethyl)-cyclopropyl]-4-phenyl-isoxazol-3-yl}-phenol] |
| 237 nM | 9.48% | > 10000 nM | >3.19% | 190 to 192 °C | CCOc1ncccc1OCC1(c2onc(-c3ccc(O)cc3)c2-c2ccccc2)CC1 [Example 6, 4-{5-[1-(2-Ethoxy-pyridin-3-yloxymethyl)-cyclopropyl]-4-phenyl-isoxazol-3-yl}-phenol] |
| 38.4 nM | 45.3% | – | 0.679% | 169 to 170 °C | Oc1ccc(-c2noc(C3(C(O)(C4CC4)C4CC4)CC3)c2-c2ccccc2)cc1 [Example 99, 4-{5-(1-(Dicyclopropyl-hydroxy-methyl)-cyclopropyl]-4-phenyl-isoxazol-3-yl}-phenol] |
| 47.5 nM | 79.3% | 46.7 nM | 81.2% | 196 to 197 °C | CC(O)C1(c2onc(-c3ccc(O)cc3)c2-c2ccccc2)CC1 (racemic) [Example 45, (±)-4-{5-[1-(1-Hydroxy-ethyl)-cyclopropyl]-4-phenyl-isoxazol-3-yl}-phenol] |

— US7470715B2, “Estrogen modulators” (Pfizer Inc., priority 2005, dated 2008)
